In PMC7968329, “Triazoloacridone C-1305 impairs XBP1 splicing by acting as a potential IRE1α endoribonuclease inhibitor” (Cellular & Molecular Biology Letters, 2021):

Target: T1, IRE1α (Homo sapiens, UniProt O75460)
T1 construct: gene ERN1
Assay: ADP-Glo luminescent kinase assay with purified IRE1
Type: biochemical

T1 sequence (O75460 19-977): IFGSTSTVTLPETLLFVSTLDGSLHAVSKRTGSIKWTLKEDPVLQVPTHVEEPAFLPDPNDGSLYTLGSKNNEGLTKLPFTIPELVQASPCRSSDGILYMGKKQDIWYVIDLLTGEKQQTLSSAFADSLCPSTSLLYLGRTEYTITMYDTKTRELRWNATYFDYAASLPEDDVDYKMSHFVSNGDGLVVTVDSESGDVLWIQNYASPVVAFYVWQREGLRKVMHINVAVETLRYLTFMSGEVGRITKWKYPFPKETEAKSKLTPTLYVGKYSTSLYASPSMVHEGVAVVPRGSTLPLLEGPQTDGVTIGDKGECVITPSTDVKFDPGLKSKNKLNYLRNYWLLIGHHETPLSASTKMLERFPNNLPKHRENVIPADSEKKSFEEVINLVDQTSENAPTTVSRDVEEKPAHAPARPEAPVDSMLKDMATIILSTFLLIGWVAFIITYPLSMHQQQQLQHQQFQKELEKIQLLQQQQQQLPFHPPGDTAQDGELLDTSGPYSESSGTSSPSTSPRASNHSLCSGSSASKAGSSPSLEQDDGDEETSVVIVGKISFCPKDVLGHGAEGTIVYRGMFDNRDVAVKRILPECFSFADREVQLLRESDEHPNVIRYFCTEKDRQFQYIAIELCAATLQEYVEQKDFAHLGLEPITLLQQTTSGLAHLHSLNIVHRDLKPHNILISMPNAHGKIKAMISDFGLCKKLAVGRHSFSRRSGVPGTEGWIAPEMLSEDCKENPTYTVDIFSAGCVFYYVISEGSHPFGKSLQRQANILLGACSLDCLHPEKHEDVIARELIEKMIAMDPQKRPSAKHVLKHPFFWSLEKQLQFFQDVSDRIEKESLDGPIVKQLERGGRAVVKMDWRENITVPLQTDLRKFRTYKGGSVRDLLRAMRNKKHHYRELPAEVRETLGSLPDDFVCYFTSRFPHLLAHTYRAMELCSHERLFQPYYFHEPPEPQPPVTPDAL

`Cc1cc(=O)oc2c(C=O)c(O)ccc12` [4µ8C, 7-Hydroxy-4-methyl-2-oxo-2H-chromene-8-carbaldehyde] was tested, and the IC50 was 31.2 µM.
